Source: article PMC9851200, “Multiparameter phenotypic screening for endogenous TFEB and TFE3 translocation identifies novel chemical series modulating lysosome function” (Autophagy, 2022)

How the values were obtained:
endogenous TFEB = experiment: TFEB nuclear translocation, immunocytochemistry high-content imaging; format: cell-based; conditions: for TFEB %: PKIS2 primary screening
endogenous TFE3 = experiment: TFE3 nuclear translocation, immunocytochemistry high-content imaging; format: cell-based; conditions: for TFE3 %: PKIS2 primary screening; for nTFE3 %: primary screen, 1 µM, 24 h
SH-SY5Y cells [1] = conditions: PKIS2 primary screening; for DQ Intensity: DQ Red BSA intensity; for DQ Spot: DQ Red BSA spot count
From the text: The PKIS2 Library was supplied by The Structural Genomics Consortium at the University of North Carolina at Chapel Hill.

PRKD2 = biological target: T1, PRKD2 (Homo sapiens, UniProt Q9BZL6); conditions: cited from earlier work
T1 sequence (Q9BZL6 1-878): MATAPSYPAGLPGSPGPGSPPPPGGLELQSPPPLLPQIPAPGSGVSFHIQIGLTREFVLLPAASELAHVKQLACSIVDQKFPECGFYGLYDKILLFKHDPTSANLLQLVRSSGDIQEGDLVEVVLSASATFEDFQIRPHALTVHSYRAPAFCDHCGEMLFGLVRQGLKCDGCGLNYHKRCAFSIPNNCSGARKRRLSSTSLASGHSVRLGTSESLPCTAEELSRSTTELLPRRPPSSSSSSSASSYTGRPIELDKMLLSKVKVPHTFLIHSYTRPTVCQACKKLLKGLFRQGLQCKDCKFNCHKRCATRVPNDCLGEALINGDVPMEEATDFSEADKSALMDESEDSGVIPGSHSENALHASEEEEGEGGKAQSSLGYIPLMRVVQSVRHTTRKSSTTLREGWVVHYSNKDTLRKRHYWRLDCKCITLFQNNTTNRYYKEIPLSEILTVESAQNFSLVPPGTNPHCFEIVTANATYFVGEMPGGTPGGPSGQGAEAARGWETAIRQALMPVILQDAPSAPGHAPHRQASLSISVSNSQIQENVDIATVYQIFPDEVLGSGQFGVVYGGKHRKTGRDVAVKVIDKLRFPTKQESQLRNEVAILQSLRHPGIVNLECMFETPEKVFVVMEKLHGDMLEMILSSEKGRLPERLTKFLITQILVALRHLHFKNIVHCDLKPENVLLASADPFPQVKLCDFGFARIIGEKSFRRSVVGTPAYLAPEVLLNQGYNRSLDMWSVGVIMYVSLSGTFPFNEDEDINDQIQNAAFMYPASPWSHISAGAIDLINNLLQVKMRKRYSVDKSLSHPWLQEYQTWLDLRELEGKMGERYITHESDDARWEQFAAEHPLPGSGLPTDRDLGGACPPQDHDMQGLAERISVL

PRKD1 = biological target: T2, PRKD1 (Homo sapiens, UniProt Q15139); conditions: cited from earlier work
T2 sequence (Q15139 1-912): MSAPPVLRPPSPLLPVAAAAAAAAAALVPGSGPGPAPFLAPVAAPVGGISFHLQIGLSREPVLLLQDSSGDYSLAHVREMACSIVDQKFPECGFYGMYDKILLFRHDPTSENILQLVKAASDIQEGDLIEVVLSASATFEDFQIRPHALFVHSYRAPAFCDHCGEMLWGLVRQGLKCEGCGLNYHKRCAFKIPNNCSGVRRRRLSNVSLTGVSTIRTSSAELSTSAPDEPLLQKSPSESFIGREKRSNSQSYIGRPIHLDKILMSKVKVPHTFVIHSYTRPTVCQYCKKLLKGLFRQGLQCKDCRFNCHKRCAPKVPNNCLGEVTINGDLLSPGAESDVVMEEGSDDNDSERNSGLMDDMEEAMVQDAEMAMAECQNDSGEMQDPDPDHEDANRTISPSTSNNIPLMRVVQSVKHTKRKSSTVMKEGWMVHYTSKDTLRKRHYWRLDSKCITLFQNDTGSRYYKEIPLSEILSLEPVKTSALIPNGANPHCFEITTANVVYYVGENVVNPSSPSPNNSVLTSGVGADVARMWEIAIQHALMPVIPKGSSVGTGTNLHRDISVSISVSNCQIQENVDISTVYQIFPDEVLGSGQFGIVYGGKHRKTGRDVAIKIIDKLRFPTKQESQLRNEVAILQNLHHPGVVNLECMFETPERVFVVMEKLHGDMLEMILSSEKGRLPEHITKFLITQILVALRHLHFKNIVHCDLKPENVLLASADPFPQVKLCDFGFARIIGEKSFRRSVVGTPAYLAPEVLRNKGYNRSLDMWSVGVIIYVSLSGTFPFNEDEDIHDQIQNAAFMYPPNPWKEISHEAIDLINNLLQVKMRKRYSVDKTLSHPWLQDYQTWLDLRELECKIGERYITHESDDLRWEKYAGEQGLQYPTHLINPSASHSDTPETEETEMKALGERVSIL

CIT = CIT (Homo sapiens, UniProt O14578); conditions: cited from earlier work
ACVR1B = biological target: T3, ACVR1B (Homo sapiens, UniProt P36896); conditions: cited from earlier work
T3 sequence (P36896 24-505): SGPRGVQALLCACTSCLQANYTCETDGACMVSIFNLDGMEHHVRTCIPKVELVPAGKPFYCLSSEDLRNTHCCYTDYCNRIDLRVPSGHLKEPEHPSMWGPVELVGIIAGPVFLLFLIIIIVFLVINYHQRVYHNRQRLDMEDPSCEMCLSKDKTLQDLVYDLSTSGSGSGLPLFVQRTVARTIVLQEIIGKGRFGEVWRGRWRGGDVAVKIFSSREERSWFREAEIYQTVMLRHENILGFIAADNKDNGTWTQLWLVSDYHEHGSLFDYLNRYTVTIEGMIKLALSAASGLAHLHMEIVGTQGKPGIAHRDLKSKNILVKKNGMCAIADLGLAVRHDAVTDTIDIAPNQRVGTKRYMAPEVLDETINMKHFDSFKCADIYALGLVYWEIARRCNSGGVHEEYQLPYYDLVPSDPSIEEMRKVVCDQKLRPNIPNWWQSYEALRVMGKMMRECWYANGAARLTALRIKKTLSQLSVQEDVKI

TGFBR2 = TGFBR2 (Homo sapiens, UniProt P37173); conditions: cited from earlier work
JAK1(JH2) = biological target: T4, JAK1(JH2) (Homo sapiens, UniProt P23458); conditions: cited from earlier work
T4 construct: JAK1(JH2)

CSNK1D = CSNK1D (Homo sapiens, UniProt P48730); conditions: cited from earlier work
PIKFYVE = PIKFYVE (Homo sapiens, UniProt Q9Y2I7); conditions: cited from earlier work
BMPR1B = BMPR1B (Homo sapiens, UniProt O00238); conditions: cited from earlier work
SH-SY5Y cells [2] = experiment: AK (adenylate kinase) release ToxiLight cytotoxicity assay; conditions: PKIS2 primary screening; further: reference of the scale not given here
SH-SY5Y cells [3] = experiment: Nuclear count from microscopy images (cellular growth and toxicity); conditions: PKIS2 primary screening; further: reference of the scale not given here
Wherever DQ Intensity is given: reference of the scale not given here.
Wherever DQ Spot is given: reference of the scale not given here.

Sequence of BMPR1B (O00238 14-502): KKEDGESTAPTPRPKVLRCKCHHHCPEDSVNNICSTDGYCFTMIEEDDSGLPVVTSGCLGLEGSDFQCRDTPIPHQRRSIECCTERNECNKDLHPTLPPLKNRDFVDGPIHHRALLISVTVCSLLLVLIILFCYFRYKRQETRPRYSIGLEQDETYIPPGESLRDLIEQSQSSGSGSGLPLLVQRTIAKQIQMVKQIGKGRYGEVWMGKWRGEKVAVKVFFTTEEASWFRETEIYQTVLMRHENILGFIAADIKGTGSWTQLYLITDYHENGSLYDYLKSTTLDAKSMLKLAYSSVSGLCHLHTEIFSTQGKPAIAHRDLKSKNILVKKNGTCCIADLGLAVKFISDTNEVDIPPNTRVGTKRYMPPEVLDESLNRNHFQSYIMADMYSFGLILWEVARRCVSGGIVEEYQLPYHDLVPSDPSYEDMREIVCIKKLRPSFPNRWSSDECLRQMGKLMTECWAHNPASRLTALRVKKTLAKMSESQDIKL
Sequence of CSNK1D (P48730 whole entry): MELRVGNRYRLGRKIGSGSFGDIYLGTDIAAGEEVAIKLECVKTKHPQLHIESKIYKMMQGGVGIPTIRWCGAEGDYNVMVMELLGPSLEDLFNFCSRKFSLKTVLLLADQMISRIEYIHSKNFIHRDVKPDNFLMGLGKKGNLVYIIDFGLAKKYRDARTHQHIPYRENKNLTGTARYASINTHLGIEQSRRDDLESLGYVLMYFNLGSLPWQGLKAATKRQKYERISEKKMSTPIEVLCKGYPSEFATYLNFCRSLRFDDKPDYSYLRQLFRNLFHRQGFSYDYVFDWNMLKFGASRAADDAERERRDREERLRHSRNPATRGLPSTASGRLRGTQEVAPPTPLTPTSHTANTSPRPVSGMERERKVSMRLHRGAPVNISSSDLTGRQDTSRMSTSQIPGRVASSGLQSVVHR
Sequence of PIKFYVE (Q9Y2I7 whole entry): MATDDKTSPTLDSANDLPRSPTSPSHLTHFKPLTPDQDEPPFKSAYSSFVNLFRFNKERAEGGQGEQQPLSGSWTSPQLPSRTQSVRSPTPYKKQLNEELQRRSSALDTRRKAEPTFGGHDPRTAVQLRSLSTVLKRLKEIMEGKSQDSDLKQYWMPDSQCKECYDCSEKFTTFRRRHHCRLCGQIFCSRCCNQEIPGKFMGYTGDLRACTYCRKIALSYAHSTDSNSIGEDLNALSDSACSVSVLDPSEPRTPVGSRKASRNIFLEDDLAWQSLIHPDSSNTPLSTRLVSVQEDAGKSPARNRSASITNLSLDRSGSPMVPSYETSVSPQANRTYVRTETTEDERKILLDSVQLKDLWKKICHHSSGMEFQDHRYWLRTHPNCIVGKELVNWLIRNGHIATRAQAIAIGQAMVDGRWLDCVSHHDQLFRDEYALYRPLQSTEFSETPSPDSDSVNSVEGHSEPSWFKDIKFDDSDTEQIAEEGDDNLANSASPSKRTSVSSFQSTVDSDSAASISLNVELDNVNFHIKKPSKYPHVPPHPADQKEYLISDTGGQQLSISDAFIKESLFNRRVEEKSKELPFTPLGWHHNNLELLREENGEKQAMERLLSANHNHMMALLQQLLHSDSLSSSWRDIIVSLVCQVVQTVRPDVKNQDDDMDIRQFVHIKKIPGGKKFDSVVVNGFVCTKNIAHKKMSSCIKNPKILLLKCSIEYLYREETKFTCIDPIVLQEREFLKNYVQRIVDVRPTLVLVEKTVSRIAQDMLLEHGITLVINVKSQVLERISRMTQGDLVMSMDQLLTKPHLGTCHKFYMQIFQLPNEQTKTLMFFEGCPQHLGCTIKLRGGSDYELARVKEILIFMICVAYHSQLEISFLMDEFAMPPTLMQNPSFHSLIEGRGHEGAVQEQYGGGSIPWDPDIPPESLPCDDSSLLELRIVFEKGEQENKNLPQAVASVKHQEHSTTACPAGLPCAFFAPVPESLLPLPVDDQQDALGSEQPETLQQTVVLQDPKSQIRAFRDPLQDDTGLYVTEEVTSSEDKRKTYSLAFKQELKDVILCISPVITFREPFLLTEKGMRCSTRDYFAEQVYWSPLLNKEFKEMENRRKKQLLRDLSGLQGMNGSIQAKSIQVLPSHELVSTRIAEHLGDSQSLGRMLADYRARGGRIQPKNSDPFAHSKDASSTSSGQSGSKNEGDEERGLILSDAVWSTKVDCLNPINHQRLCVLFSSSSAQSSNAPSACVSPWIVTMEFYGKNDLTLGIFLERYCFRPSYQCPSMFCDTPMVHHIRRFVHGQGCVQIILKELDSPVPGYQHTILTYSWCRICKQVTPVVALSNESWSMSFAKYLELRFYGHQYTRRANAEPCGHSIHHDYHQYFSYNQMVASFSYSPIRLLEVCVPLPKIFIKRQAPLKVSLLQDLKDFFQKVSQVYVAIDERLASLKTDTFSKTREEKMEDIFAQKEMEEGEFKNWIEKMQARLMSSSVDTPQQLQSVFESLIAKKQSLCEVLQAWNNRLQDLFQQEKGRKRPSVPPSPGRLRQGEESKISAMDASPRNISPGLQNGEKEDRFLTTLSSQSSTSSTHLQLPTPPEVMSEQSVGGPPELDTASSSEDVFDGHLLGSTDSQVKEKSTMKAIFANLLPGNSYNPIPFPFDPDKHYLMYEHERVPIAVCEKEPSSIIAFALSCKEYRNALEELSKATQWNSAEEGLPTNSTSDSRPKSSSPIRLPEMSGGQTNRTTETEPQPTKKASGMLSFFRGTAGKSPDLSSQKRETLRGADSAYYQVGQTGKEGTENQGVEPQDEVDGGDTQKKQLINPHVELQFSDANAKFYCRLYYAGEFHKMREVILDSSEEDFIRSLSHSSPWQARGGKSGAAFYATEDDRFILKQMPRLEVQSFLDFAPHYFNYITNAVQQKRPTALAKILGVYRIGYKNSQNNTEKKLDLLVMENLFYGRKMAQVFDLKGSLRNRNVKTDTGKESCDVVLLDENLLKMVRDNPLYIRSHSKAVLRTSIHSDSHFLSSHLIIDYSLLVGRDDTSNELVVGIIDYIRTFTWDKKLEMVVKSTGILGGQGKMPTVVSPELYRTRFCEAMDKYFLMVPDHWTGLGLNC
Sequence of TGFBR2 (P37173 23-567): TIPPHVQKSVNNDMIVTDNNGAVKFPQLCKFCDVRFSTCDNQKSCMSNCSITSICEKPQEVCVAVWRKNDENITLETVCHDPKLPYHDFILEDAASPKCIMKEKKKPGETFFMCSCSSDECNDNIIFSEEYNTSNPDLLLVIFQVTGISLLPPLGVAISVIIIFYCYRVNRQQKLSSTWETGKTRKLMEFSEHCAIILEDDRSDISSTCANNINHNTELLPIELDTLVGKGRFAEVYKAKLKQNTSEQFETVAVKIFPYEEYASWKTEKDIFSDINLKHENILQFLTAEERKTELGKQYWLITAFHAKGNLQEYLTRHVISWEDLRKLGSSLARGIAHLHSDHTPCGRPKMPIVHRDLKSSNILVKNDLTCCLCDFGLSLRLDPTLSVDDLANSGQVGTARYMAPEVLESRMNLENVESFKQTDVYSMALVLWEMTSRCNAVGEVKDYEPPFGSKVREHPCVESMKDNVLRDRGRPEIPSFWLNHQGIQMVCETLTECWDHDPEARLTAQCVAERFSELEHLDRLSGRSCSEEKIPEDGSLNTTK
T4 sequence (P23458 583-855 limits assumed): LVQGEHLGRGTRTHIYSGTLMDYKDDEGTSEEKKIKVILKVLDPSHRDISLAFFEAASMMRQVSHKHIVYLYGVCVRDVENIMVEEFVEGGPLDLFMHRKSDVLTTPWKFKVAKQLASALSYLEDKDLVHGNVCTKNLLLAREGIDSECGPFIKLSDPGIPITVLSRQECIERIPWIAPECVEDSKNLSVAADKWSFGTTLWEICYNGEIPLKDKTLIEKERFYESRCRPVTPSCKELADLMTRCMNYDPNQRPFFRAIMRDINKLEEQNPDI

| SMILES | TFEB % (endogenous TFEB) [%] | TFE3 % (endogenous TFE3) [%] | nTFE3 % (endogenous TFE3; SH-SY5Y) [%] | DQ Intensity (SH-SY5Y cells [1]) | DQ Spot (SH-SY5Y cells [1]) | KINOMEscan binding PRKD2 (PRKD2) [%] | KINOMEscan binding PRKD1 (PRKD1) [%] | KINOMEscan binding CIT (CIT) [%] | KINOMEscan binding ACVR1B (ACVR1B) [%] | KINOMEscan binding TGFBR2 (TGFBR2) [%] | KINOMEscan binding JAK1(JH2) (JAK1(JH2)) [%] | KINOMEscan binding CSNK1D (CSNK1D) [%] | KINOMEscan binding PIKFYVE (PIKFYVE) [%] | KINOMEscan binding BMPR1B (BMPR1B) [%] | AK (SH-SY5Y cells [2]) | Nuclear Count (SH-SY5Y cells [3]) | TFEB translocation (in words) (endogenous TFEB; SH-SY5Y, 24 h treatment) | TFE3 translocation (in words) (endogenous TFE3; SH-SY5Y, 24 h treatment) |
| --- | --- | --- | --- | --- | --- | --- | --- | --- | --- | --- | --- | --- | --- | --- | --- | --- | --- | --- |
| Cc1cc(Nc2nc(-c3cccc(C)n3)nc3ccccc23)ccn1 [GW872411] | 5.91 | 20.21 | 20.2 | 103.32 | 114.14 | 99.9 | 99.4 | 0 | 73 | 0 | 81 | 35 | 53 | 0 | 69.93 | 94.17 |  |  |
| Cc1cccc(-c2nc(Nc3ccncc3)c3sccc3n2)n1 [GW869641] | 20.32 | 6.93 | 6.9 | 90.97 | 102.97 | 99.6 | 99.3 | 96.6 | 96.5 | 95.6 | 90.2 | 90 | 86 | 82 | 80.75 | 70.17 |  |  |
| Cc1cccc(-c2nc(C)cc(Nc3ccncc3)n2)n1 [GSK257997] | 2.98 | 9.74 | 9.7 | 78.64 | 86.70 | 80 | 78 | 23 | 78 | 4 | 0 | 43 | 27 | 0 | 66.29 | 128.02 | did not show TFEB and TFE3 activation | did not show TFEB and TFE3 activation |
| Cc1cccc(-c2nc(Nc3ccc4nn[nH]c4c3)c3ccccc3n2)n1 [GW867587] | 14.22 | 12.03 | 12 | 114.16 | 102.41 | 98.1 | 94.2 | 15 | 0 | 0 | 52 | 4 | 13 | 0 | 54.27 | 123.89 |  |  |
| Cc1cccc(-c2nc(Nc3ccc4c(cnn4C)c3)c3ccccc3n2)n1 [GW876731] | 18.65 | 20.31 | 20.3 | 96.16 | 100.57 | 99.6 | 99.2 | 12 | 64 | 0 | 16 | 50 | 91.5 | 0 | 73.05 | 107.18 |  |  |
| Cc1cccc(-c2nc(Nc3cccc(C(N)=O)c3)c3ccccc3n2)n1 [GW876019] | 7.94 | 17.52 | 17.5 | 115.76 | 107.41 | 66 | 64 | 45 | 83 | 15 | 78 | 8 | 16 | 0 | 199.56 | 75.33 |  |  |
| Cc1csc(-c2nc(Nc3ccncc3)c3ccccc3n2)n1 [GW869640] | 2.75 | 13.20 | 13 | 86.86 | 102.29 | 78 | 69 | 61 | 94.7 | 88 | 74 | 46 | 78 | 42 | 59.35 | 81.77 |  |  |
| Clc1cccc(-c2nc(Nc3ccncc3)c3ccccc3n2)c1 [GW873004] | 4.68 | 19.51 | 19.5 | 102.26 | 118.51 | 45 | 47 | 57 | 72 | 17 | 16 | 12 | 61 | 4 | 129.21 | 66.61 |  |  |
